Test results published in patent US8211941B2, “Antagonists of the transient receptor potential vanilloid 1 and uses thereof” (The Board of Regents of the University of Texas System, priority 2007, dated 2012).

Legend:
dogs = conditions: subcutaneous; cited from earlier work
[1] = General observation of dogs after endoscopic resiniferatoxin spray; assay type: in vivo, dog; conditions: after endoscopic gastric spray of 250 ml of a 100 nM solution
Protocol: (§1) Four dogs with surgically created jejunocutaneous fistulae 20 cm distal to the pylorus were used in this study. Nausea and vomiting were induced using two different stimuli, both of which are vagally dependent, at least in part: (1) Balloon inflation in the jejunum (2) Intravenous vasopressin infusion (0.5 U/Kg infused over 20 minutes). Nausea was assessed using a previously validated behavioral scoring system in addition to counting actual episodes of vomiting. After baseline observations, resiniferatoxin (250 ml of a 100 nM solution) was administered endoscopically using a spray catheter to coat the mucosal lining of the stomach under general anesthesia into the stomach. One week later, the response to balloon distention and vasopressin infusion was recorded again.

[2] = test system: vagal afferent nerves (TRPV1) in the stomach; test: Nausea and vomiting induced by balloon inflation in the jejunum, behavioral emetic score; assay type: in vivo, dog; conditions: dogs, one week after 250 ml of a 100 nM solution sprayed endoscopically onto gastric mucosa; baseline 26.3±4.0; p=0.01
Protocol: (§2) Nausea and vomiting was induced using either balloon distention or intra-venous infusion of vasopressin (0.5 U/Kg infused over 20 minutes). Untreated represents control or baseline mean score of the emetic response was 26.3±4.0 and 29.0±6.2 for balloon distention and vasopressin stimuli respectively. Following, Resiniferatoxin infusion (250 ml of a 100 nM solution): the mean score with balloon distention was 11.7±4.2 (p=0.01) while the mean score with vasopressin was 16.3±5 (p=0.05).
as §1

ferrets [3] = conditions: subcutaneous; cited from earlier work
[4] = test system: vagal afferent nerves (TRPV1) in the stomach; test: Nausea and vomiting induced by intravenous vasopressin infusion, behavioral emetic score; assay type: in vivo, dog; conditions: dogs, vasopressin 0.5 U/Kg iv over 20 minutes, one week after 250 ml of a 100 nM solution sprayed endoscopically; baseline 29.0±6.2; p=0.05
Protocol: as §2, §1

ferrets [5] = conditions: subcutaneous; cited from earlier work; remark: listed apart in the source
Suncus murinus = conditions: subcutaneous; cited from earlier work

Q: What does the source list for `C=C(C)[C@]12C[C@@H](C)[C@@]34O[C@](Cc5ccccc5)(O[C@@H]1[C@@H]3C=C(COC(=O)Cc1ccc(O)c(OC)c1)C[C@]1(O)C(=O)C(C)=C[C@@H]41)O2` [Resiniferatoxin]?
A: effect on acute and delayed cisplatin and apomorphine induced emesis (dogs): inhibited; body weight change [1]: minor weight loss; general health of dogs [1]: appeared healthy; mean score of the emetic response with balloon distention [2]: 11.7±4.2; effect on acute and delayed cisplatin and apomorphine induced emesis (ferrets [3]): inhibited; mean score of the emetic response with vasopressin [4]: 16.3±5; effect on copper sulphate, whole body radiation and Loperamide induced emetic response (ferrets [5]): blocked; emetic / anti-emetic properties (Suncus murinus): initial emetic followed by anti-emetic properties
